In ChEMBL document CHEMBL1201862, “PubChem BioAssay data set” (2004):
Calls of active or inactive are those of the source. Cut-off read from the data, not from the text of the source: actives have a measured IC50 and inactives only a lower limit.

Target: Envelope glycoprotein gp160 (Human immunodeficiency virus 1, UniProt Q6QLK5)
Assay: cell-free HIV fusion peptide-binding blockers – biochemical, uHTS, fluorescence dequenching, […] (AID 1986)

Chain of Envelope glycoprotein gp160 (Q6QLK5 whole entry, the tested form may be a part): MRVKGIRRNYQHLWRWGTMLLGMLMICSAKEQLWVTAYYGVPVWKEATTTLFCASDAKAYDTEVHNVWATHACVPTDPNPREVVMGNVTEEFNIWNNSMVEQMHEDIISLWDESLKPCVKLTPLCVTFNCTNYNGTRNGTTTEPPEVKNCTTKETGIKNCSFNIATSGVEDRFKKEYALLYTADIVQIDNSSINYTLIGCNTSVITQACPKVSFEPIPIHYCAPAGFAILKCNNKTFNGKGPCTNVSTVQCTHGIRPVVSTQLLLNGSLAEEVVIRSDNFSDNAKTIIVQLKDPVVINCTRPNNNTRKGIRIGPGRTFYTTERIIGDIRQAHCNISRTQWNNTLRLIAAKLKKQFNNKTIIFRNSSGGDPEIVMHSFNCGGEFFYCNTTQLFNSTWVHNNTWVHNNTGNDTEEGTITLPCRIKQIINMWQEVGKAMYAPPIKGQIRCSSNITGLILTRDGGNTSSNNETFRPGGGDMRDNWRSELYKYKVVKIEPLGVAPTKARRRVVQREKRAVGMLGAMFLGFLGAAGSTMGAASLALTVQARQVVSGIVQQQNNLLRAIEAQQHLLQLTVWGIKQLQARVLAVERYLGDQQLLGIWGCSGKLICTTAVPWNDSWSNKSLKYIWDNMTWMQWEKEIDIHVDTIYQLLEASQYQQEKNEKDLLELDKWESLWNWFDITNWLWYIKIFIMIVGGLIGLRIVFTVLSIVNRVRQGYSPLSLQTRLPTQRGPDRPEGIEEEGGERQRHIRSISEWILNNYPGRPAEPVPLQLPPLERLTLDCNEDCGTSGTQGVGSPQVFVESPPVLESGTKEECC

CCCOc1ccc(C2C(C(=O)c3cc4ccccc4o3)=C(O)C(=O)N2c2cc(C)on2)cc1 (configuration not stated)
IC50: 16.5 µM (active)

COc1ccc(/C=N/NC(=O)c2[nH]c3ccc(Br)cc3c2-c2ccccc2)c(C(=O)O)c1OC
IC50: 19.4 µM (active)
